From patent publication US12110286B2, “Benzimidazolone derived inhibitors of BCL6” (Cancer Research Technology Limited, priority 2017, dated 2024)

Biological target: Trx-6×His-BCL6 (human BCL6 BTB domain covering amino-acid sequence 5-129) (Homo sapiens (Human), UniProt P41182)
Assay: HTRF in vitro assay (BCL6 / BCOR-AF633 peptide)
Assay type: binding
Conditions: further generated data; 1 nM Trx-6×His-BCL6, 300 nM BCOR-AF633 peptide, 0.5 nM anti-6×His-Terbium cryptate
Procedure: The % inhibition at each concentration was calculated by normalising FRET ratio to the appropriate high (DMSO with all reagents) and low (DMSO without BCL6) controls.

Compound | HTRF pIC50
Cn1c(=O)n(CCC(C)(C)O)c2cc(Nc3nc(N4C[C@H]5CCCC[C@H]5C4)ncc3Cl)ccc21 [Example 35o, 5-((5-chloro-2-((3aR,7aS)-octahydro-2H-isoindo1-2-yl)pyrimidin-4-yl)amino)-3-(3-hydroxy-3-methylbutyl)-1-methyl-1,3-dihydro-2H-benzo[d]imidazol-2-one] | 6.04
C[C@@H]1CN(c2ncc(Cl)c(Nc3ccc4c(c3)n(CCC(C)(C)O)c(=O)n4C)n2)C[C@@H]1C [Example 35p, 5-((5-chloro-2-((3R,4S)-3,4-dimethylpyrrolidin-1-yl)pyrimidin-4-yl)amino)-3-(3-hydroxy-3-methylbutyl)-1-methyl-1,3-dihydro-2H-benzo[d]imidazol-2-one] | 6.15
C[C@@H]1CN(c2ncc(Cl)c(Nc3cnc4c(c3)n(CCC(C)(C)O)c(=O)n4CCC(C)(C)O)n2)C[C@H](C)C1(F)F [Example 35r, 6-((5-chloro-2-((3R,5S)-4,4-difluoro-3,5-dimethylpiperidin-1-yl)pyrimidin-4-yl)amino)-1,3-bis(3-hydroxy-3-methylbutyl)-1,3-dihydro-2H-imidazo[4,5-b]pyridin-2-one] | 5.98
Cn1c(=O)n(CCC(C)(C)O)c2cc(Nc3nc(N4CC5CCC(C4)C5(F)F)ncc3Cl)ccc21 [Example 35s, 5-((5-chloro-2-(8,8-difluoro-3-azabicyclo[3.2.1]octan-3-yl)pyrimidin-4-yl)amino)-3-(3-hydroxy-3-methylbutyl)-1-methyl-1,3-dihydro-2H-benzo[d]imidazol-2-one] | 6.16
CC(C)(O)CCn1c(=O)n(CCC(C)(C)O)c2c(Cl)cc(Nc3nc(N4CC(C)(C)OC(C)(C)C4)ncc3Cl)cc21 [Example 35u, 4-chloro-6-((5-chloro-2-(2,2,6,6-tetramethylmorpholino)pyrimidin-4-yl)amino)-1,3-bis(3-hydroxy-3-methylbutyl)-1,3-dihydro-2H-benzo[d]imidazol-2-one] | 5.74
Cn1c(=O)n(CCC(C)(C)O)c2cc(Nc3nc(N4CC5CC(C4)C5(F)F)ncc3Cl)ccc21 [Example 35w, 5-((5-chloro-2-(6,6-difluoro-3-azabicyclo[3.1.1]heptan-3-yl)pyrimidin-4-yl)amino)-3-(3-hydroxy-3-methylbutyl)-1-methyl-1,3-dihydro-2H-benzo[d]imidazol-2-one] | 5.74
C[C@@H]1CCN(c2ncc(Cl)c(Nc3ccc4c(c3)n(CCC(C)(C)O)c(=O)n4C)n2)C[C@H](C)C1 [Example 35y, 5-((5-chloro-2-((3R,5S)-3,5-dimethylazepan-1-yl)pyrimidin-4-yl)amino)-3-(3-hydroxy-3-methylbutyl)-1-methyl-1,3-dihydro-2H-benzo[d]imidazol-2-one] | 5.70
Cn1c(=O)n(CCC(C)(C)O)c2cc(Nc3nc(N4CCCC(c5ccccc5)C4)ncc3Cl)ccc21 (stereo not shown) [Example 35za, 5-((5-chloro-2-(3-phenylpiperidin-1-yl)pyrimidin-4-yl)amino)-3-(3-hydroxy-3-methylbutyl)-1-methyl-1,3-dihydro-2H-benzo[d]imidazol-2-one] | 6.00
C[C@@H]1CN(c2cc(Nc3ccc4c(c3)n(CCC(C)(C)O)c(=O)n4C)c(Cl)cn2)C[C@H](C)O1 [Example 36b, 5-((5-chloro-2-((2R,6S)-2,6-dimethylmorpholino)pyridin-4-yl)amino)-3-(3-hydroxy-3-methylbutyl)-1-methyl-1,3-dihydro-2H-benzo[d]imidazol-2-one] | 5.99
CN(C)C(=O)C1CCN(c2cc(Nc3ccc4c(c3)n(CCC(C)(C)O)c(=O)n4C)c(Cl)cn2)CC1 [Example 36c, 1-(5-chloro-4-((3-(3-hydroxy-3-methylbutyl)-1-methyl-2-oxo-2,3-dihydro-1H-benzo[d]imidazol-5-yl)amino)pyridin-2-yl)-N,N-dimethylpiperidine-4-carboxamide] | 5.88
C[C@@H]1C[C@H](C)CN(c2cc(Nc3ccc4c(c3)n(CCC(C)(C)O)c(=O)n4C)c(Cl)cn2)C1 [Example 36d, 5-((5-chloro-2-((3S,5R)-3,5-dimethylpiperidin-1-yl)pyridin-4-yl)amino)-3-(3-hydroxy-3-methylbutyl)-1-methyl-1,3-dihydro-2H-benzo[d]imidazol-2-one] | 5.48
C[C@@H]1C[C@H](C)CN(C(=O)c2cc(Nc3ccc4c(c3)n(CCC(C)(C)O)c(=O)n4C)c(Cl)cn2)C1 [Example 36e, 5-((5-chloro-2-((3R,5S)-3,5-dimethylpiperidine-1-carbonyl)pyridin-4-yl)amino)-3-(3-hydroxy-3-methylbutyl)-1-methyl-1,3-dihydro-2H-benzo[d]imidazol-2-one] | 6.22
C[C@@H]1CN(C(=O)c2cc(Nc3ccc4c(c3)n(CCC(C)(C)O)c(=O)n4C)c(Cl)cn2)C[C@H](C)C1(F)F [Example 36f, 5-((5-chloro-2-((3S,5R)-4,4-difluoro-3,5-dimethylpiperidine-1-carbonyl)pyridin-4-yl)amino)-3-(3-hydroxy-3-methylbutyl)-1-methyl-1,3-dihydro-2H-benzo[d]imidazol-2-one] | 6.07
C[C@@H]1CN(c2ncc(Cl)c(Nc3ccc4c(c3)n(CCC(C)(C)O)c(=O)n4CCN(C)C)n2)C[C@H](C)C1(F)F [Example 37a, 5-((5-chloro-2-((3S,5R)-4,4-difluoro-3,5-dimethylpiperidin-1-yl)pyrimidin-4-yl)amino)-1-(2-(dimethylamino)ethyl)-3-(3-hydroxy-3-methylbutyl)-1,3-dihydro-2H-benzo[d]imidazol-2-one] | 6.53
C[C@@H]1CN(c2ncc(Cl)c(Nc3ccc4c(c3)n(CCC(C)(C)O)c(=O)n4CCN3CCOCC3)n2)C[C@H](C)C1(F)F [Example 37b, 5-((5-chloro-2-((3S,5R)-4,4-difluoro-3,5-dimethylpiperidin-1-yl)pyrimidin-4-yl)amino)-3-(3-hydroxy-3-methylbutyl)-1-(2-morpholinoethyl)-1,3-dihydro-2H-benzo[d]imidazol-2-one] | 6.47
CCOC(=O)/C=C/Cn1c(=O)n(CCC(C)(C)O)c2cc(Nc3nc(N4C[C@@H](C)C(F)(F)[C@@H](C)C4)ncc3Cl)ccc21 [Example 38a, ethyl(E)-4-(5-((5-chloro-2-((3S,5R)-4,4-difluoro-3,5-dimethylpiperidin-1-yl)pyrimidin-4-yl)amino)-3-(3-hydroxy-3-methylbutyl)-2-oxo-2,3-dihydro-1H-benzo[d]imidazol-1-yl)but-2-enoate] | 5.53
Cn1c(=O)n(CCC(C)(C)O)c2cc(Nc3nc(OCC(F)(F)F)ncc3Cl)ccc21 [Example 39a, 5-((5-Chloro-2-(2,2,2-trifluoroethoxy)pyrimidin-4-yl)amino)-3-(3-hydroxy-3-methylbutyl)-1-methyl-1,3-dihydro-2H-benzo[d]imidazol-2-one] | 6.09
C[C@@H]1CN(c2ncc(Cl)c(Nc3ccc4c(c3)n(CCC(C)(C)O)c(=O)n4CCO)n2)C[C@H](C)C1(F)F [Example 40a, 5-[[5-chloro-2-[(3S,5R)-4,4-difluoro-3,5-dimethyl-1-piperidyl]pyrimidin-4-yl]amino]-1-(2-hydroxyethyl)-3-(3-hydroxy-3-methyl-butyl)benzimidazol-2-one] | 6.49
COC(Cn1c(=O)n(CCC(C)(C)O)c2cc(Nc3nc(N4C[C@@H](C)C(F)(F)[C@@H](C)C4)ncc3Cl)ccc21)OC [Example 41a, 5-((5-chloro-2-((3S,5R)-4,4-difluoro-3,5-dimethylpiperidin-1-yl)pyrimidin-4-yl)amino)-1-(2,2-dimethoxyethyl)-3-(3-hydroxy-3-methylbutyl)-1,3-dihydro-2H-benzo[d]imidazol-2-one] | 6.06
Cn1c(=O)n(CCC(C)(C)O)c2cc(Nc3nc(N4CCC(C#N)CC4)ncc3Cl)ccc21 [Example 42a, 1-(5-chloro-4-((3-(3-hydroxy-3-methylbutyl)-1-methyl-2-oxo-2,3-dihydro-1H-benzo[d]imidazol-5-yl)amino)pyrimidin-2-yl)piperidine-4-carbonitrile] | 6.60
Cn1c(=O)n(CCC(C)(C)O)c2cc(Nc3nc(N4CCCC(C#N)C4)ncc3Cl)ccc21 (stereo not shown) [Example 42b, 1-(5-chloro-4-((3-(3-hydroxy-3-methylbutyl)-1-methyl-2-oxo-2,3-dihydro-1H-benzo[d]imidazol-5-yl)amino)pyrimidin-2-yl)piperidine-3-carbonitrile] | 6.46
Cn1c(=O)n(CCC(C)(C)O)c2cc(Nc3nc(N4CCC(CN5CCOCC5)CC4)ncc3Cl)ccc21 [Example 42c, 5-((5-chloro-2-(4-(morpholinomethyl)piperidin-1-yl)pyrimidin-4-yl)amino)-3-(3-hydroxy-3-methylbutyl)-1-methyl-1,3-dihydro-2H-benzo[d]imidazol-2-one] | 6.56
Cn1c(=O)n(CCC(C)(C)O)c2cc(Nc3nc(N4CCCC(CN5CCOCC5)C4)ncc3Cl)ccc21 (stereo not shown) [Example 42d, 5-((5-chloro-2-(3-(morpholinomethyl)piperidin-1-yl)pyrimidin-4-yl)amino)-3-(3-hydroxy-3-methylbutyl)-1-methyl-1,3-dihydro-2H-benzo[d]imidazol-2-one] | 6.54
Cn1cc2c(n1)CN(c1ncc(Cl)c(Nc3ccc4c(c3)n(CCC(C)(C)O)c(=O)n4C)n1)CC2 [Example 42e, 5-((5-chloro-2-(2-methyl-2,4,5,7-tetrahydro-6H-pyrazolo[3,4-c]pyridin-6-yl)pyrimidin-4-yl)amino)-3-(3-hydroxy-3-methylbutyl)-1-methyl-1,3-dihydro-2H-benzo[d]imidazol-2-one] | 6.68
Cn1ncc2c1CN(c1ncc(Cl)c(Nc3ccc4c(c3)n(CCC(C)(C)O)c(=O)n4C)n1)CC2 [Example 42f, 5-((5-chloro-2-(1-methyl-1,4,5,7-tetrahydro-6H-pyrazolo[3,4-c]pyridin-6-yl)pyrimidin-4-yl)amino)-3-(3-hydroxy-3-methylbutyl)-1-methyl-1,3-dihydro-2H-benzo[d]imidazol-2-one] | 6.58
